Test results: ChEMBL document CHEMBL1147517, “Potent and selective inhibitors of bacterial methionyl tRNA synthetase derived from an oxazolone-dipeptide scaffold” (Bioorg Med Chem Lett, 2004); call rule not given here

Tests used:
[1] = target: T1, Methionine--tRNA ligase, cytoplasmic (Homo sapiens, UniProt P56192); experiment: Inhibition of human methionyl-tRNA synthetase (fMetRS)
T1 sequence (P56192 whole entry): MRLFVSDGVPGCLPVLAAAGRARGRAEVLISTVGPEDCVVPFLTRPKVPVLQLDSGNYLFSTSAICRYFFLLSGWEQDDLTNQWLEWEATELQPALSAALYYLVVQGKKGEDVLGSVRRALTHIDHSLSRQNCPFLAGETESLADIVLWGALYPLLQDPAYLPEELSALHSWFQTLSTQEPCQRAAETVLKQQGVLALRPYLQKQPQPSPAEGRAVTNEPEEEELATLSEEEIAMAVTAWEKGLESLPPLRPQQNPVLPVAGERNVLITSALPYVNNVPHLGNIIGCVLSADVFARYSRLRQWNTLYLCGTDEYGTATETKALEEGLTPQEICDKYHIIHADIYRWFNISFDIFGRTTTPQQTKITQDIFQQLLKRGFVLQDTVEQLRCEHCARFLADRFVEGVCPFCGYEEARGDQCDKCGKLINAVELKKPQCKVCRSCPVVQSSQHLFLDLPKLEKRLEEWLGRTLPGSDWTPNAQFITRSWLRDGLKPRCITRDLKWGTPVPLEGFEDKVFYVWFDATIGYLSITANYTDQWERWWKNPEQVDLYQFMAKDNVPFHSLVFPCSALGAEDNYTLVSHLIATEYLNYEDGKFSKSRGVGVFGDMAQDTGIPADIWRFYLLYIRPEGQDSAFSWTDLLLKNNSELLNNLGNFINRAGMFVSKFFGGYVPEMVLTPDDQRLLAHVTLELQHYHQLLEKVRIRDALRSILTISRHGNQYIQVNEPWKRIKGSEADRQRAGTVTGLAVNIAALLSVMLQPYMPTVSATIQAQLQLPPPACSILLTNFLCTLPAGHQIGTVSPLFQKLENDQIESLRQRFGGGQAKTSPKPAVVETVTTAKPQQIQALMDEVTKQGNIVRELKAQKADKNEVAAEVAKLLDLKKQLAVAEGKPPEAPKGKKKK

[2] = tested on: Methionine--tRNA ligase (Enterococcus faecalis); experiment: Inhibition of Enterococci faecalis methionyl-tRNA synthetase (EfMetRS) at the concentration of 10 uM
[3] = target: T2, Methionine--tRNA ligase, cytoplasmic (Homo sapiens) (UniProt P56192); experiment: Inhibition of human methionyl-tRNA synthetase (fMetRS) at the concentration of 10 uM
T2 sequence (whole entry): T1 sequence (P56192 whole entry)

[4] = tested on: Methionine--tRNA ligase (Staphylococcus aureus); experiment: Inhibition of Staphylococcus aureus methionyl-tRNA synthetase (SaMetRS) at the concentration of 10 uM
[5] = tested on: Methionine--tRNA ligase (Enterococcus faecalis); experiment: Inhibition of Enterococci faecalis methionyl-tRNA synthetase (EfMetRS); Inactive

| Compound | IC50 [1] [µM] | inhibition [2] [%] | inhibition [3] [%] | inhibition [4] [%] | IC50 [5] |
| --- | --- | --- | --- | --- | --- |
| CCC/C(=C1/N=C(c2ccc(Br)cc2)OC1=O)N1CC[C@H]1C(=O)N[C@@H](Cc1ccc(O)cc1)C(N)=O | > 100 | – | – | – | – |
| NC(=O)[C@H](Cc1ccc(O)cc1)NC(=O)C1CCN(/C=C2\N=C(c3ccc(Br)cc3)OC2=O)CC1 | – | 7 | 6 | 1 | – |
| NC(=O)[C@H](Cc1ccc(O)cc1)NC(=O)[C@@H]1CCN1/C=C1\N=C(c2ccc(Br)cc2)OC1=O | > 100 | – | – | – | – |
| CC/C(=C1/N=C(c2ccc(Br)cc2)OC1=O)N1CCC[C@H]1C(=O)N[C@@H](Cc1ccc(O)cc1)C(N)=O | > 100 | – | – | – | – |
| CCC/C(=C1/N=C(c2ccc(Br)cc2)OC1=O)N1CCC[C@H]1C(=O)N[C@@H](Cc1ccc(O)cc1)C(N)=O | > 100 | – | – | – | – |
| NC(=O)[C@H](Cc1ccc(O)cc1)NC(=O)C1CCCN(/C=C2\N=C(c3ccc(Br)cc3)OC2=O)C1 (some centres undefined) | – | – | 23 | 39 | Not Active |

Second part, the compound after the results:

| IC50 [1] [µM] | inhibition [2] [%] | inhibition [3] [%] | inhibition [4] [%] | IC50 [5] | Compound |
| --- | --- | --- | --- | --- | --- |
| – | 60 | 88 | 73 | – | NC(=O)[C@H](Cc1ccc(O)cc1)NC(=O)C1CCCCN1/C=C1\N=C(c2ccc(Cl)cc2Cl)OC1=O (some centres undefined) |
| – | 5 | 5 | 3 | – | NC(=O)[C@H](Cc1ccc(O)cc1)NC(=O)C1CCN(/C=C2\N=C(c3ccc(Cl)cc3Cl)OC2=O)CC1 |
| – | – | 5 | – | – | NC(=O)[C@H](Cc1ccc(O)cc1)NC(=O)[C@@H]1CCCN1/C=C1\N=C(c2ccc(Br)cc2)OC1=O |
| > 100 | – | – | – | – | NC(=O)[C@H](Cc1ccc(O)cc1)NC(=O)[C@@H]1CCCN1/C=C1\N=C(c2ccc(Cl)cc2Cl)OC1=O |
| – | 7 | 19 | 55 | – | NC(=O)[C@H](Cc1ccc(O)cc1)NC(=O)C1CCCCN1/C=C1\N=C(c2ccc(Br)cc2)OC1=O (some centres undefined) |
| – | 2 | 20 | 43 | – | NC(=O)[C@H](Cc1ccc(O)cc1)NC(=O)C1CCCN(/C=C2\N=C(c3ccc(Cl)cc3Cl)OC2=O)C1 (some centres undefined) |
